Read-outs that look alike come from different tables or passages of the source. Where a SMILES comes first, the peptide text is derived from it. [ ]: non-standard residue; d: D form. ξ: configuration not given here. ξLac(3-iPr) = CC(C)CC(O)C(=O)O; NMeV = CN[CH](C(=O)O)C(C)C; NMeA = CN[CH](C)C(=O)O; βAla = NCCC(=O)O
System: wild-type ZIKV (Ugandan MR766 strain) in Vero cells
Assay: ZIKV cytopathic effect (CPE) inhibition qHTS assay, CellTiter-Glo readout
Assay type: cell-based, Zika virus
Conditions: for AC50 / Emax: Zika virus, Vero; for Emax: read-out: Max response
[1] = read-out: Log AC50 (M) (converted)

Row | SMILES | Efficacy | AC50 | CC-v2 (curve class classification of the dose response curve) | AC50 [1] | also measured
1 | C[C@H]1C(=O)N2c3ccccc3[C@@]3(O)C[C@@H]4C(=O)N[C@](C)(c5nc6ccccc6c(=O)n54)N1[C@@H]23 [NCGC00169614-02] | -78.987 | 1.59e-05 M |  |  | Curve class: -3; AC50 (read-out: Log AC50 (converted)): 1.59e-05 M; Emax: 0.173%
2 | C=C(C(=O)O)[C@@H]1CC[C@@]2(C)CCC[C@@](C)(O)[C@@H]2C1 [NCGC00169889-02] | -77.65 | 2.91e-05 M |  |  | Curve class: -3; AC50 (read-out: Log AC50 (converted)): 2.91e-05 M; Emax: -0.865%
3 | CCC(C)C1NC(=O)C2CCCN2C(=O)C(CC(C)C)OC(=O)CCNC(=O)C(C)N(C)C(=O)C(C(C)C)N(C)C1=O (centres unmarked) [NCGC00169957-03] (cyclo([ξLac(3-iPr)]PI[NMeV][NMeA][βAla]); configuration not given here) | -56.609 | 1.93e-05 M | -2.2 | 1.93e-05 M | 
4 | CC1(C)CC[C@]2(C(=O)O)CC[C@]3(C)C(=CCC4[C@@]5(C)CC[C@H](O[C@@H]6O[C@H](C(=O)O)[C@@H](O[C@@H]7OC[C@@H](O)[C@H](O)[C@H]7O)[C@H](O)[C@H]6O)C(C)(C)C5CC[C@]43C)C2C1O (some centres unmarked) [NCGC00179805-02] | -39.908 | 2.73e-05 M | -3 | 2.73e-05 M | 
5 | COC(=O)C12CCC(C)C(C)C1C1=CCC3C4(C)CCC(OC(C)=O)C(C)(C)C4CCC3(C)C1(C)CC2 (centres unmarked) [NCGC00179932-02] | -73.633 | 1.42e-05 M | -3 | 1.42e-05 M | 
6 | C=C(C)C1=C[C@@]2(C)C(=CC1=O)CC[C@@H](O)[C@@H]2C [NCGC00180357-02] | -25.033 | 1.46e-05 M |  | 1.46e-05 M | 
7 | CO[C@H]1[C@H](O)[C@H](O[C@H]2CC[C@]3(C)C4CC[C@]5(C)[C@H](C6=CC(=O)OC6)CC[C@]5(O)C4CC[C@@H]3C2)O[C@@H](C)[C@@H]1O (some centres unmarked) [NCGC00180641-02] | -18.714 | 1e-06 M |  | 1e-06 M | 
8 | C=C[C@H]1[C@H](O[C@@H]2O[C@H](CO)[C@@H](O)[C@H](O)[C@H]2O)OC=C2C(=O)OCC[C@H]21 [NCGC00180755-03] |  |  |  |  | AC50 (from Hill fit of the response curve, 50% of maximum activity response, 194 cherry-picked compounds, protocol name not given, read-out: AC50): 1.28e-05 M; AC50 (potency in log units (Molar) from Hill fit of the response curve, 194 cherry-picked compounds, protocol name not given, read-out: Log AC50 (converted)): 1.28e-05 M; CC-v2 (curve class classification of the dose response curve) (curve class v2 (Inglese et al. 2006)): -3; Efficacy (difference between neutral response and maximum compound response): -78.228
9 | C/C=C(\C)C(=O)O[C@H]1C=C(CO)C(=O)[C@H](OC(C)=O)[C@H]1C(C)C [NCGC00180769-03] | -32.712 | 4.53e-05 M | -3 | 4.53e-05 M | 
10 | COc1cc(O)c2c(c1)/C=C/C[C@H](O)[C@H](O)C(=O)/C=C\C[C@H](C)OC2=O [NCGC00186421-07] | -83.256 |  | -3 |  | 
11 | COC(=O)[C@]12CCC(C)(C)C[C@H]1[C@H]1C(=O)C=C3[C@@]4(C)C=C(C#N)C(=O)C(C)(C)[C@@H]4CC[C@@]3(C)[C@]1(C)CC2 [NCGC00186460, bardoxolone methyl, reference compound] |  |  |  |  | Identified as active in CPE assay validation set: identified
12 | COc1cc2c(NC3CCN(C(C)C)CC3)nc(C3CCCCC3)nc2cc1OCCCN1CCCC1 [NCGC00189220-03] | -26.68 | 7.31e-05 M |  | 7.31e-05 M | 
13 | CC(C)(O)CCc1ccc(OCc2cc(-c3cccc(OC(F)F)c3)c3ncccc3c2)cc1 [NCGC00249759-02] | -26.837 | 3.26e-05 M |  | 3.26e-05 M | 
14 | COc1c(Cl)cc2c([nH]c3cnccc32)c1NC(=O)c1cccnc1C [NCGC00263021-04] | -34.501 | 6.51e-05 M | -2.2 | 6.51e-05 M | 
15 | O=C1[C@H](CC[C@H](O)c2ccc(F)cc2)[C@@H](c2ccc(O)cc2)N1c1ccc(F)cc1 [NCGC00263575-07] | -30.405 | 2.91e-05 M |  | 2.91e-05 M | 
16 | CCN(CC)C(=O)Nc1ccc(OCC(O)CNC(C)(C)C)c(C(C)=O)c1 (centres unmarked) [NCGC00344562-02] | -33.868 | 3.26e-05 M | -3 | 3.26e-05 M | 
17 | CN1CCC(COc2cnc(-c3cccc(Cn4nc(-c5cccc(C#N)c5)ccc4=O)c3)nc2)CC1 [NCGC00345793-08] | -35.437 | 6.51e-05 M |  | 6.51e-05 M | 
18 | CC[C@H](CC#N)OC(=O)N[C@@H](C)c1cccc(NC(=O)Nc2ccc(-c3cnco3)c(OC)c2)c1 [NCGC00345803-05] | -31.6 | 7.31e-05 M |  | 7.31e-05 M | 
19 | COc1cc(Nc2nc3ccccc3nc2N[S+](=O)([O-])c2ccc(NC(=O)c3ccc(C)c(OC)c3)cc2)cc(OC)c1 [NCGC00346541-08] | -33.022 | 5.8e-05 M |  | 5.8e-05 M | 
20 | C[C@H]1[C@H](C)CC[C@]2(C(=O)O)CC[C@]3(C)C(=CC[C@@H]4[C@@]5(C)C[C@@H](O)[C@H](O)[C@@](C)(CO)[C@@H]5CC[C@]43C)[C@H]12 [NCGC00346584-02] | -33.569 | 5.8e-05 M |  | 5.8e-05 M | 

Source: article PMC8765781, “A platform of assays for the discovery of anti-Zika small-molecules with activity in a 3D-bioprinted outer-blood-retina model” (PLoS ONE, 2022)
